# Reference: US20070021434A1, “NON-NUCLEOSIDE ANTI-HEPACIVIRUS AGENTS AND USES THEREOF” (Migenix Inc., priority 2005, published 2007)
# Target: HCV RdRp (NS5B) (UniProt P26663)
# Format: biochemical, hepatitis C virus
# Sequence of HCV RdRp (NS5B) (P26663 whole entry, looked up): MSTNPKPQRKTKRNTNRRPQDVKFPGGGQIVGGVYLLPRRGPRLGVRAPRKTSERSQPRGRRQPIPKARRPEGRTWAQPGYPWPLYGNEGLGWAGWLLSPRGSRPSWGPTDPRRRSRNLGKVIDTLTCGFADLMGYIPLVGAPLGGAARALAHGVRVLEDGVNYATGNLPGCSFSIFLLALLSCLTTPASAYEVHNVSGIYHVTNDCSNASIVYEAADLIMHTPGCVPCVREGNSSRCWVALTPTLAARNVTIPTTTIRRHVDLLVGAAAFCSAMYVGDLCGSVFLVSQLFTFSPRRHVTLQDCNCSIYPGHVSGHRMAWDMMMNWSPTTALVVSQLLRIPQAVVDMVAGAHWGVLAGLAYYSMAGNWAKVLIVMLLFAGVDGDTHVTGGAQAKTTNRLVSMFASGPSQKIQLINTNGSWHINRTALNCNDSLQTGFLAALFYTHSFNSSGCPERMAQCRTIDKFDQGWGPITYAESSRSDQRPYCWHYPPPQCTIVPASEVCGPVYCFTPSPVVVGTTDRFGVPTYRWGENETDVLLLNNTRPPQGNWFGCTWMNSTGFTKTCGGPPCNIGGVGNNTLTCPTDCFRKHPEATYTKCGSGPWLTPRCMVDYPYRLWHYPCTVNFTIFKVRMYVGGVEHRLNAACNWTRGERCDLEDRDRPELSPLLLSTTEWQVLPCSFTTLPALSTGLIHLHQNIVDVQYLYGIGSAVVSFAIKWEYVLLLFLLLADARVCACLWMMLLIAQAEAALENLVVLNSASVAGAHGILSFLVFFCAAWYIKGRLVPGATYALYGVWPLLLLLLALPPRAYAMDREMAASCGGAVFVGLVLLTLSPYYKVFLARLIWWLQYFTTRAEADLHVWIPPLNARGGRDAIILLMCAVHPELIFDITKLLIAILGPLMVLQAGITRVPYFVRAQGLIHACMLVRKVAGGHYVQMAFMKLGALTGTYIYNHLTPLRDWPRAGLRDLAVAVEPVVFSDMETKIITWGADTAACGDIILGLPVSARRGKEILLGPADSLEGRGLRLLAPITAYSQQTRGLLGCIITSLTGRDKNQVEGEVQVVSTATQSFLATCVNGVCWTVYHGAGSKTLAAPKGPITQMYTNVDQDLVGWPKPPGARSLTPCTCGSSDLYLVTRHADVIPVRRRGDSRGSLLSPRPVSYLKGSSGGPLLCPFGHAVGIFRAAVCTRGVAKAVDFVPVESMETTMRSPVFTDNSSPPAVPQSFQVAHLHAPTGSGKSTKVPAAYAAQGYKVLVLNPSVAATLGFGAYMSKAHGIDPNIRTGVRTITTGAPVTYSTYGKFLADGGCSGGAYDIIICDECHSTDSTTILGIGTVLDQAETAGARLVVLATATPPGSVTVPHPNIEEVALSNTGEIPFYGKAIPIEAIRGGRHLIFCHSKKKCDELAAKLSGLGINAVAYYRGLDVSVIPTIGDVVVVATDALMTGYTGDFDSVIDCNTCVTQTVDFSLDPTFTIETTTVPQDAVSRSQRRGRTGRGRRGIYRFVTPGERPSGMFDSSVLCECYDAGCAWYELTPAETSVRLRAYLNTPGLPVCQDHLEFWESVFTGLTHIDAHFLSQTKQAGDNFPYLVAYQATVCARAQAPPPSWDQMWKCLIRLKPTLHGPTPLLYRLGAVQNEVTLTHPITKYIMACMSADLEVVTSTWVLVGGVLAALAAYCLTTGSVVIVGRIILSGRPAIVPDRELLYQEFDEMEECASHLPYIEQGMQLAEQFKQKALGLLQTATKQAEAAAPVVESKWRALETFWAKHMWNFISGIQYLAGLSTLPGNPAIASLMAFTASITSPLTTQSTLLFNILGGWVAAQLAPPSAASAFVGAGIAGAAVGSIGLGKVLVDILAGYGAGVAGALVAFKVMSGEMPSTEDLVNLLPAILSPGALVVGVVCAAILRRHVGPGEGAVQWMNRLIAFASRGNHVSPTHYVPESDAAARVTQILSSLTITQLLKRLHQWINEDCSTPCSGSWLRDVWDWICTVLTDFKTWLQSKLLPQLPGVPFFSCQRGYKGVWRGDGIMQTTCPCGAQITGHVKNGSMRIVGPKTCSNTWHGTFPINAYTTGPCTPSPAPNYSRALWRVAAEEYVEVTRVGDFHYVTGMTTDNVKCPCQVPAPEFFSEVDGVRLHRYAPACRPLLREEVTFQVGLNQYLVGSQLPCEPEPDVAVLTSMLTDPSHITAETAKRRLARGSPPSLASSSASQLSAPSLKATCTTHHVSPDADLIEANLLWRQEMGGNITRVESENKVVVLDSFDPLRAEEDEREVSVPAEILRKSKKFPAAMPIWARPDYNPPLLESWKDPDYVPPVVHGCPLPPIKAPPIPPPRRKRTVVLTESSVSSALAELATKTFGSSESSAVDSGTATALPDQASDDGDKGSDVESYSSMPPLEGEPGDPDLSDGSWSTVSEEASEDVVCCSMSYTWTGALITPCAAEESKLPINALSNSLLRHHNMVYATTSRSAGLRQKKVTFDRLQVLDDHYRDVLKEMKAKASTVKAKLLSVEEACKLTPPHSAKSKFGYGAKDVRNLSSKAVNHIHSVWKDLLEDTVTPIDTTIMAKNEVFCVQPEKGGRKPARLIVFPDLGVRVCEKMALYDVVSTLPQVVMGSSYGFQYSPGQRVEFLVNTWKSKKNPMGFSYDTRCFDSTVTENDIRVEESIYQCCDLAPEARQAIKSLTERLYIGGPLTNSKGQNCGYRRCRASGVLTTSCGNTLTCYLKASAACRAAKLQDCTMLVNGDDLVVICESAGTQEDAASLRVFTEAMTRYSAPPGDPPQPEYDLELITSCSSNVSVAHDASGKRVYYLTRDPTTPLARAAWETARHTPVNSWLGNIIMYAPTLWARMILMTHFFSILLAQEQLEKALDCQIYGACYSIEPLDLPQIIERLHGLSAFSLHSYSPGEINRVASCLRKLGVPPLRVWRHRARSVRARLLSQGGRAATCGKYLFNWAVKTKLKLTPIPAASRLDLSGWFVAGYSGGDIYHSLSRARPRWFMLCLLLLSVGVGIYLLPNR
row,Compound,IC50 [µM]
1,"Cc1ccc(NC(=O)CC2CN(C(=O)CN)CCN2C(=O)OCC2c3ccccc3-c3ccccc32)cc1 (racemic) [Compound 182, (+/−)-4-(2-AMINO-ACETYL)-2-(P-TOLYLCARBAMOYL-METHYL)-PIPERAZINE-1-CARBOXYLIC ACID 9H-FLUOREN-9-YLMETHYL ESTER]",> 50
2,"CNc1ccc(NC(=O)[C@H](CCCCN)NC(=O)OCC2c3ccccc3-c3ccccc32)cc1 [Compound 209, (S)-[5-AMINO-1-(4-METHYLAMINO-PHENYLCARBAMOYL)-PENTYL]-CARBAMIC ACID 9H-FLUOREN-9-YLMETHYL ESTER]",10 to 50
3,"Cc1ccc(NC(=O)[C@H](CCCCN)NC(=O)CNCc2ccccc2F)cc1 [Compound 344, (S)-6-AMINO-2-[2-(2-FLUORO-BENZYLAMINO)-ACETYLAMINO]-HEXANOIC ACID P-TOLYLAMIDE]",> 50
4,"NCCCC[C@@H](NC(=O)NC1c2ccccc2-c2ccccc21)C(=O)Nc1ccc(C2CCCCC2)cc1 [Compound 195, (R)-6-AMINO-2-[3-(9H-FLUOREN-9-YL)-UREIDO]-HEXANOIC ACID (4-CYCLOHEXYL-PHENYL)-AMIDE]",< 10
5,"Cc1ccc(NC(=O)[C@H](CCCCN)NC(=O)Nc2cccc(OCc3ccccc3)c2)cc1 [Compound 204, (S)-6-AMINO-2-[3-(3-BENZYLOXY-PHENYL)-UREIDO]-HEXANOIC ACID P-TOLYLAMIDE]",> 50
6,"CC(C)(C)OC(=O)NCCCC[C@H](N)C(=O)N(Cc1ccccc1)C1CCCCC1 [Compound 34, (S)-[5-AMINO-5-(BENZYL-CYCLOHEXYL-CARBAMOYL)-PENTYL]-CARBAMIC ACID TERT-BUTYL ESTER]",10 to 50
7,"Cc1ccc(NC(=O)C(CCCCN)NC(=O)C(N)Cc2cccc3ccccc23)cc1 [Compound 77, (S)-6-AMINO-2-(2-(S)-AMINO-3-NAPHTHALEN-1-YL-PROPIONYLAMINO)-HEXANOIC ACID P-TOLYLAMIDE]",> 50
8,"NCCCC[C@H](NC(=O)Nc1ccc(OCc2ccccc2)cc1)C(=O)NCCO [Compound 260, (S)-6-AMINO-2-[3-(4-BENZYLOXY-PHENYL)-UREIDO]-HEXANOIC ACID (2-HYDROXY-ETHYL)-AMIDE]",> 50
9,"NCCCC[C@@H](NC(=O)NCc1ccccc1)C(=O)Nc1ccc(C2CCCCC2)cc1 [Compound 141, (R)-6-AMINO-2-(3-BENZYL-UREIDO)-HEXANOIC ACID (4-CYCLOHEXYL-PHENYL)-AMIDE]",< 10
10,"Cc1ccc(NC(=O)[C@H](CCCCN)NC(=O)Nc2ccc(OCc3cccc([N+](=O)[O-])c3)cc2)cc1 [Compound 275, (S)-6-AMINO-2-{3-[4-(3-NITRO-BENZYLOXY)-PHENYL]-UREIDO}-HEXANOIC ACID P-TOLYLAMIDE]",10 to 50
11,"Cc1ccc(NC(=O)[C@H](CCCCN)NC(=O)CNc2cccc(F)c2)cc1 [Compound 360, (S)-6-AMINO-2-[2-(3-FLUORO-PHENYLAMINO)-ACETYLAMINO]-HEXANOIC ACID P-TOLYLAMIDE]",10 to 50
12,"Cc1ccc(NC(=O)[C@H](CCCCN)NS(=O)(=O)c2cc(Cl)cc(Cl)c2)cc1 [Compound 394, (S)-6-AMINO-2-(3,5-DICHLORO-BENZENESULFONYLAMINO)-HEXANOIC ACID P-TOLYLAMIDE]",> 50
13,"NCCCC[C@H](NC(=O)OCC1c2ccccc2-c2ccccc21)C(=O)N(Cc1ccccc1)C1CCCCC1 [Compound 33, (S)-[5-AMINO-1-(BENZYL-CYCLOHEXYL-CARBAMOYL)-PENTYL]-CARBAMIC ACID 9H-FLUOREN-9-YLMETHYL ESTER]",10 to 50
14,"NCCCC[C@H](NC(=O)[C@@H](N)Cc1c[nH]c2ccccc12)C(=O)Nc1ccc(CN(C(=O)c2ccco2)C2CCCCC2)cc1 [Compound 23, (S)-FURAN-2-CARBOXYLIC ACID (4-{6-AMINO-2-[2-(S)-AMINO-3-(1H-INDOL-3-YL)-PROPIONYLAMINO]-HEXANOYLAMINO}-BENZYL)-CYCLOHEXYL-AMIDE]",10 to 50
15,"CC(C)(NC(=O)c1ccc(C(=O)O)cc1)C(=O)Nc1ccc(CN(C(=O)c2ccco2)C2CCCCC2)cc1 [Compound 4, N-[1-(4-{[CYCLOHEXYL-(FURAN-2-CARBONYL)-AMINO]-METHYL}-PHENYLCARBAMOYL)-1-METHYL-ETHYL]-TERE[…]]",> 50
16,"Cc1ccc(NC(=O)[C@H](CCCCN)NS(=O)(=O)c2cccc3nonc23)cc1 [Compound 398, (S)-6-AMINO-2-(BENZO[1,2,5]OXADIAZOLE-4-SULFONYLAMINO)-HEXANOIC ACID P-TOLYLAMIDE]",> 50
17,"CCNCC(=O)NCCCC(NC(=O)OCC1c2ccccc2-c2ccccc21)C(=O)Nc1ccc(C)cc1 [Compound 242, (S)-[4-(2-ETHYLAMINO-ACETYLAMINO)-1-P-TOLYLCARBAMOYL-BUTYL]-CARBAMIC ACID 9H-FLUOREN-9-YLMETHYL ESTER]",< 10
18,"COc1cccc(NCC(=O)N[C@@H](CCCCN)C(=O)Nc2ccc(C)cc2)c1 [Compound 358, (S)-6-AMINO-2-[2-(3-METHOXY-PHENYLAMINO)-ACETYLAMINO]-HEXANOIC ACID P-TOLYLAMIDE]",10 to 50
19,"NCCCC[C@H](NC(=O)NCc1ccccc1)C(=O)Nc1ccc(CN(C(=O)c2ccco2)C2CCCCC2)cc1 [Compound 153, (S)-FURAN-2-CARBOXYLIC ACID {4-[6-AMINO-2-(3-BENZYL-UREIDO)-HEXANOYLAMINO]-BENZYL}-CYCLOHEXYL-AMIDE]",> 50
20,"NCCCC[C@@H](NC(=O)OCC1c2ccccc2-c2ccccc21)C(=O)Nc1ccc(-c2ccccc2)cc1 [Compound 144, (R)-[5-AMINO-1-(BIPHENYL-4-YLCARBAMOYL)-PENTYL]-CARBAMIC ACID 9H-FLUOREN-9-YLMETHYL ESTER]",< 10

row,Compound,IC50 [µM]
1,"Cc1ccc(NC(=O)[C@H](CCCCN)NC(=O)Nc2ccc(OCc3ccc(Cl)cc3)cc2)cc1 [Compound 273, (S)-6-AMINO-2-{3-[4-(4-CHLORO-BENZYLOXY)-PHENYL]-UREIDO}-HEXANOIC ACID P-TOLYLAMIDE]",< 10
2,"NCCCCN(CC(=O)Nc1ccc(C2CCCCC2)cc1)C(=O)Nc1ccc(OCc2ccccc2)cc1 [Compound 323, 2-[1-(4-AMINO-BUTYL)-3-(4-BENZYLOXY-PHENYL)-UREIDO]-N-(4-CYCLOHEXYL-PHENYL)-ACETAMIDE]",> 50
3,"Cc1ccc(NC(=O)[C@H](CCCCN)NC(=O)CNCc2ccc(Cl)cc2)cc1 [Compound 349, (S)-6-AMINO-2-[2-(4-CHLORO-BENZYLAMINO)-ACETYLAMINO]-HEXANOIC ACID P-TOLYLAMIDE]",> 50
4,"Cc1ccc(NC(=O)C(CCCCN)NC(=O)OCc2ccccc2)cc1 [Compound 403, (S)-(5-AMINO-1-P-TOLYLCARBAMOYL-PENTYL)-CARBAMIC ACID BENZYL ESTER]",> 50
5,"Cc1ccc(NC(=O)C(CCCCN)NC(=O)Cc2cccc3ccccc23)cc1 [Compound 91, (S)-6-AMINO-2-(2-NAPHTHALEN-1-YL-ACETYLAMINO)-HEXANOIC ACID P-TOLYLAMIDE]",> 50
6,"Cc1ccc(NC(=O)C(CCCCN)NC(=O)Nc2cc(C(F)(F)F)cc(C(F)(F)F)c2)cc1 [Compound 95, (S)-6-AMINO-2-[3-(3,5-BIS-TRIFLUOROMETHYL-PHENYL)-UREIDO]-HEXANOIC ACID P-TOLYLAMIDE]",10 to 50
7,"Cc1ccc(NC(=O)C[C@H](CCCCN)NC(=O)Nc2ccc3c(c2)Cc2ccccc2-3)cc1 [Compound 247, (S)-7-AMINO-3-[3-(9H-FLUOREN-2-YL)-UREIDO]-HEPTANOIC ACID P-TOLYLAMIDE]",10 to 50
8,"Cc1ccc(COc2ccc(NC(=O)NC(CCCCN)C(=O)Nc3ccc(C)cc3)cc2)cc1 [Compound 301, (S)-6-AMINO-2-{3-[4-(4-METHYL-BENZYLOXY)-PHENYL]-UREIDO}-HEXANOIC ACID P-TOLYLAMIDE]",> 50
9,"NCCCCC(NC(=O)OCC1c2ccccc2-c2ccccc21)C(=O)NC1CCCCC1 (stereo in doubt) [Compound 22, (S)-(5-AMINO-1-CYCLOHEXYLCARBAMOYL-PENTYL)-CARBAMIC ACID 9H-FLUOREN-9-YLMETHYL ESTER]",10 to 50
10,"NCCCC[C@H](NC(=O)Nc1ccc(OCc2ccccc2)cc1)C(=O)Nc1ccc(-n2ccnc2)cc1 [Compound 317, (S)-6-AMINO-2-[3-(4-BENZYLOXY-PHENYL)-UREIDO]-HEXANOIC ACID (4-IMIDAZOL-1-YL-PHENYL)-AMIDE]",> 50
11,"Cc1ccc(NC(=O)C(CCCCN)NC(=O)C(N)Cc2cccc3ccccc23)cc1 [Compound 60, (S,S)-6-AMINO-2-(2-AMINO-3-NAPHTHALEN-1-YL-PROPIONYLAMINO)-HEXANOIC ACID P-TOLYLAMIDE]",> 50
12,"NCCCCC(NC(=O)OCC1c2ccccc2-c2ccccc21)C(=O)Nc1ccccc1 (stereo in doubt) [Compound 19, (S)-(5-AMINO-1-PHENYLCARBAMOYL-PENTYL)-CARBAMIC ACID 9H-FLUOREN-9-YLMETHYL ESTER]",> 50
13,"Cc1ccc(NC(=O)[C@H](CCCCN)NC(=O)Nc2ccc(OCc3ccncc3)cc2)cc1 [Compound 279, (S)-6-AMINO-2-{3-[4-(PYRIDIN-4-YLMETHOXY)-PHENYL]-UREIDO}-HEXANOIC ACID P-TOLYLAMIDE]",> 50
14,"Cc1cc2cc(NC(=O)[C@H](CCCCNC(=O)CN)NC(=O)Nc3ccc4c(c3)Cc3ccccc3-4)ccc2[nH]1 [Compound 298, (S)-6-(2-AMINO-ACETYLAMINO)-2-[3-(9H-FLUOREN-2-YL)-UREIDO]-HEXANOIC ACID (2-METHYL-1H-INDOL-5-YL)-AMIDE]",> 50
15,"Cc1ccc(NC(=O)[C@@H](CCCN)NC(=O)Nc2ccc3c(c2)Cc2ccccc2-3)cc1 [Compound 193, (R)-5-AMINO-2-[3-(9H-FLUOREN-2-YL)-UREIDO]-PENTANOIC ACID P-TOLYLAMIDE]",< 10
16,"Cc1ccc(NC(=O)C(CN)NC(=O)OCC2c3ccccc3-c3ccccc32)cc1 [Compound 103, (S)-(2-AMINO-1-P-TOLYLCARBAMOYL-ETHYL)-CARBAMIC ACID 9H-FLUOREN-9-YLMETHYL ESTER]",> 50
17,"Cc1ccc(NC(=O)[C@H](CCCCN)NC(=O)CNCc2ccc(F)cc2)cc1 [Compound 346, (S)-6-AMINO-2-[2-(4-FLUORO-BENZYLAMINO)-ACETYLAMINO]-HEXANOIC ACID P-TOLYLAMIDE]",> 50
18,"Cc1ccc(NC(=O)C(CCCCN)NC(=O)Nc2ccc(Cc3ccccc3)cc2)cc1 [Compound 74, (S)-6-AMINO-2-[3-(4-BENZYL-PHENYL)-UREIDO]-HEXANOIC ACID P-TOLYLAMIDE]",10 to 50
19,"Cc1ccc(NC(=O)C(CCO)NC(=O)OCC2c3ccccc3-c3ccccc32)cc1 [Compound 374, (S)-(3-HYDROXY-1-P-TOLYLCARBAMOYL-PROPYL)-CARBAMIC ACID 9H-FLUOREN-9-YLMETHYL ESTER]",> 50
